In patent publication US7612255B2, “Transgenic plants for mitigating introgression of genetically engineered genetic traits” (priority 1999, dated 2009):

Assays:
[1] = tested on: red rice; details: fields of transgenic rice bearing the bar gene (Oard et al. 2000); cited from earlier work
[2] = tested on: non-transformed tobacco plants; experiment: Seed germination in the presence of kanamycin or imazapyr (tobacco); assay type: in vivo, Nicotiana tabacum; details: tobacco seeds on Nitsch agar medium; sensitive seedlings stop growing within 10 days
Protocol: Surface sterilized seeds of wild type, the backcross of primary transformants with wild type T0 (=BC), T1, T2, and T3 tobacco plants were planted on either medium. Sensitive seedlings were identified as those that stopped growing within 10 days, forming only short roots and cotyledons, while resistant seedlings grew well, forming long roots and true leaves, continuing their growth past 10 days. The segregation ratio of wild type to TM of each line was calculated. Resistant/dwarfed seedlings were grown to maturity in soil and the plants were analyzed for AHAS resistance (phenotype) and for ahas^R and Δgai insert by PCR (genotype), as described herein above.
Competition of TM transgenics with the wild type, and self competition of each alone: The transgenic TM tobacco was used to simulate a TM introgressed hybrid or transgenic volunteer crop, and the wild type tobacco was used to simulate a non-transgenic crop, weed, or wild plant. The competitive interactions between the transgenic and wild type plants were assessed in two separate internally replicated greenhouse experiments. In both experiments, seeds obtained from the first backcross T1 (═BC1) of a representative TM line T1-7 (pollen recipient) and wild type (pollen donor) were used to grow mixed TM and wild type cultures. […]

[3] = tested on: Δgai-transformed male sterile tobacco plants; assay type: in vivo, Nicotiana tabacum; details: kinetin foliar spray; normal fertilization and seed development
Source text: Seed production on Δgai male sterile plants: The Δgai effect on pollen production is not irreversible: treatment of plants with cytokinins results in plants producing fertile pollen, and capable of self fertilization. Hemizygous imazapyr resistant and semi-dwarf primary TM tobacco transformants (lines 7, 8, and 10) were transferred to soil and grown to flowering. […] The chemicals were in an aqueous solution containing 0.1% (v/v) Tween 20 surfactant. The control group received the surfactant solution only, or none at all. All applications were made through foliar spray every other day for 2 weeks. Female fertility was assessed by backcrossing wild type pollen donors were backcrossed to one plant from each line without kinetin application (FIG. 4). At maturity, the capsules formed on each plant were counted and the dry weight of seed set of up to 5 capsules per each plant was measured. Normal seed set was observed.
Anthers were collected from three flowers per plant. A minimum of three plants per biotype were analyzed. Pollen viability was scored by staining the pollen with cotton blue stain [Phillips, R. L. in G. Clark, ed. […]
Floral bud and pistil development of the TM transgenic plants were similar to that of wild type plants. […] Pollen viability, scored by staining tests, of these restored lines was >93% compared to approximately 0% of non-treated plants (FIG. 4). […]

[4] = tested on: non-transformed B. napus plants; experiment: Seed germination in the presence of kanamycin or imazapyr (oilseed rape); assay type: in vivo, Brassica napus; details: B. napus seeds on Nitsch agar medium
Protocol: Seed germination in the presence of kanamycin or imazapyr: A discriminatory dose level of Nitsch (Nitsch, Nicotiana. Phytomorphology 1969; 19, 389-404) agar medium containing 150 mg/L kanamycin or 0.3 μM imazapyr inhibiting the growth of non-transformed plants was determined. Surface sterilized seeds of non-transgenic, and TM B. napus plants were planted on either medium. Sensitive seedlings stopped growing within 10 days forming only short roots and cotyledons, while resistant seedlings formed long roots and true leaves and continued their growth. The segregation ratio of non-transgenic to TM of each line was calculated. Resistant/dwarfed seedlings were grown to maturity in soil and the plants were analyzed for AHAS resistance and for ahas^R and Δgai insert by PCR, as described above.
Competition of TM transgenic vs. non-transgenic Brassica napus plants and self competition of each alone: The competitive interactions between the TM transgenic vs. non-transgenic Brassica napus plants were assessed in replicated greenhouse experiments. In the first experiment seeds obtained from the selfed homozygous TM lines T1-J9-4 and -6 were used to grow the TM plants in mixed cultures with the non-transgenic plants in a 1:1 TM/WT ratio. […]

[5] = tested on: non-transgenic B. napus; experiment: Rooting of regenerated plantlets in the presence of kanamycin; assay type: in vivo, Brassica napus; details: root formation of regenerated B. napus plantlets
Source text: Transformation of oilseed rape (B. napus cv. Westar): The Agrobacterium tumefaciens-mediated transformation protocol of Moloney, et al (Plant Cell Reports 1989; 8,238-242) using excised cotyledonary petioles of B. napus cv. Westar seedlings was followed with some modifications. Excised cotyledons of axenic B. napus cv. Westar seedlings were inoculated by dipping the cut end of a 2 mm petiole in a suspension of A. tumefaciens strain EHA105 or EHA 101 containing the same TM 1 construct described in detail in Example 1. Non-transformed cotyledons served as negative controls. After co-cultivation for 2.5 days, the cotyledons were regenerated on Murashige-Skoog (MS) medium containing 500 mg/L carbenicillin to kill A. tumefaciens and 20 mg/L kanamycin as the primary plant selectable marker. Some healthy calli developed on the cut petioles and regenerated into green shoots which were then sub-cultured onto shoot elongation medium containing 300 mg/L carbenicillin and either 20 mg/L kanamycin or 0.2 μM imazapyr herbicide as secondary selectable marker of the putative transformants. The shoots were then rooted, potted, and transferred to the greenhouse to grow flower and set seed. The putative transformants were tested by PCR (FIG. 5) and by AHAS enzymatic assay (as described in Example 1 herein above) (FIG. 6) to confirm TM transformation. […]

In the case of `CP(=O)(O)CCC(N)C(=O)O` (stereo not drawn) [glufosinate], the “Control of red rice” value [1] is given as “easily controlled”.
For `CC(C)C1(C)N=C(c2ncccc2C(=O)O)NC1=O` (stereo not drawn) [imazapyr], the “Discriminatory dose level inhibiting the growth of non-transformed plants” value [2] was 0.3 µM.
For `c1coc(CNc2ncnc3[nH]cnc23)c1` [kinetin], the “Restoration of fertility of male sterile TM transgenic plants” value [3] was “restored the fertility”.
In the case of `NC[C@H]1O[C@H](O[C@H]2[C@H](O)[C@@H](O[C@H]3O[C@H](CO)[C@@H](O)[C@H](N)[C@H]3O)[C@H](N)C[C@@H]2N)[C@H](O)[C@@H](O)[C@@H]1O` [kanamycin], the “Discriminatory dose level inhibiting the growth of non-transformed plants” value [2] is reported as 85.8 µM, the “Discriminatory dose level inhibiting the growth of non-transformed plants” value [4] is reported as 150 mg/L and the “Kanamycin concentration which inhibits the non-transgenics” value [5] is reported as 20 mg/L.
